pIC50: −log10 of the molar value. “Also recorded” adds a separate entry of the source.
Experiments:
AChE = conditions: ChEMBL dataset, Ellman assay ref 43; cited from earlier work
[1] = target: T1, Acetylcholinesterase from electrophorus electricus (electric eel) (Electrophorus electricus, UniProt O42275); experiment: biochemical; conditions: modified Ellman's method, eeAChE; read-out: AchE IC50
T1 construct: purchased Sigma (St. Louis, MO)
Excerpt: Acetylcholinesterase from electrophorus electricus (electric eel), horse butyrylcholinesterase, Acetylcholine iodide, S-butyrylthiocholine chloride and 5,5′-dithio-bis-nitrobenzoic acid (DTNB) were purchased from the Sigma (St. Louis, MO) while bovine serum albumin (BSA) purchased from Research and Diagnostic Technology (RDT). Buffers and other chemicals were purchases from pure chemicals as a pure experimental grade. All the reagents and experimental conditions were same as described by previous reports. […] Acetylcholinesterase and butyrylcholinesterase inhibition was performed spectrometrically using acetylthiocholine and butyrylthiocholine as a substrate. Experiment was performed with slight modification in the method described by Ellman et al.[78]. Then, […] sodium phosphate buffer (pH 8.0), enzyme preparation and different concentration of test compound was mixed and incubated for 30 min followed by the addition of DTNB and the reactions was initiated by adding respective enzyme substrate like acetylthiocholine iodide, butyrylthiocholine chloride for Acetylcholinesterase and butyrylcholinesterase inhibition assay respectively. The hydrolysis of acetylthiocholine or butyrylthiocholineyield a dark yellow 5-thio-2-nitrobenzoate anion because of the reaction between DTNB with enzyme and enzyme substrate. […] Percentage inhibition was calculated taking negative control as 100%.

[2] = target: T2, horse butyrylcholinesterase (Equus caballus, UniProt P81908); experiment: biochemical; type: biochemical
T2 construct: purchased Sigma (St. Louis, MO)
T2 sequence (P81908 whole entry): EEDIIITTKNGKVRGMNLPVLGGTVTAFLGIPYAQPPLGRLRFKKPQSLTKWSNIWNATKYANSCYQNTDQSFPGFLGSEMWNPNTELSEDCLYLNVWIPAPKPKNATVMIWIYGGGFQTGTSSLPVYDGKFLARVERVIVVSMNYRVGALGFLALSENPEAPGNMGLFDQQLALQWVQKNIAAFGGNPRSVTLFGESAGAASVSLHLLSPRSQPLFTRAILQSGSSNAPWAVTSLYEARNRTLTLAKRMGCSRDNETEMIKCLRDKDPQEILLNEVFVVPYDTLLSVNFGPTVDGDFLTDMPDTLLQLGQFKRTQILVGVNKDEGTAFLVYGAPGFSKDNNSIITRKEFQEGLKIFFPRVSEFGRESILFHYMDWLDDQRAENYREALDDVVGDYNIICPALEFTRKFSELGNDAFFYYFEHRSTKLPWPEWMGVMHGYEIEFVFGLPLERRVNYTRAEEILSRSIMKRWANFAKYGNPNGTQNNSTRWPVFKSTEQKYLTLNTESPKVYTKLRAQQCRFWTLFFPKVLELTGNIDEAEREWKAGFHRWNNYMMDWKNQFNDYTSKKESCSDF
Excerpt: Acetylcholinesterase from electrophorus electricus (electric eel), horse butyrylcholinesterase, Acetylcholine iodide, S-butyrylthiocholine chloride and 5,5′-dithio-bis-nitrobenzoic acid (DTNB) were purchased from the Sigma (St. Louis, MO) while bovine serum albumin (BSA) purchased from Research and Diagnostic Technology (RDT). Buffers and other chemicals were purchases from pure chemicals as a pure experimental grade. All the reagents and experimental conditions were same as described by previous reports. […] Acetylcholinesterase and butyrylcholinesterase inhibition was performed spectrometrically using acetylthiocholine and butyrylthiocholine as a substrate. Experiment was performed with slight modification in the method described by Ellman et al.[78]. Then, […] sodium phosphate buffer (pH 8.0), enzyme preparation and different concentration of test compound was mixed and incubated for 30 min followed by the addition of DTNB and the reactions was initiated by adding respective enzyme substrate like acetylthiocholine iodide, butyrylthiocholine chloride for Acetylcholinesterase and butyrylcholinesterase inhibition assay respectively. The hydrolysis of acetylthiocholine or butyrylthiocholineyield a dark yellow 5-thio-2-nitrobenzoate anion because of the reaction between DTNB with enzyme and enzyme substrate. […] Solvent used for compound dilution was used for the negative control. Percentage inhibition was calculated taking negative control as 100%.

T1 sequence (O42275 24-633): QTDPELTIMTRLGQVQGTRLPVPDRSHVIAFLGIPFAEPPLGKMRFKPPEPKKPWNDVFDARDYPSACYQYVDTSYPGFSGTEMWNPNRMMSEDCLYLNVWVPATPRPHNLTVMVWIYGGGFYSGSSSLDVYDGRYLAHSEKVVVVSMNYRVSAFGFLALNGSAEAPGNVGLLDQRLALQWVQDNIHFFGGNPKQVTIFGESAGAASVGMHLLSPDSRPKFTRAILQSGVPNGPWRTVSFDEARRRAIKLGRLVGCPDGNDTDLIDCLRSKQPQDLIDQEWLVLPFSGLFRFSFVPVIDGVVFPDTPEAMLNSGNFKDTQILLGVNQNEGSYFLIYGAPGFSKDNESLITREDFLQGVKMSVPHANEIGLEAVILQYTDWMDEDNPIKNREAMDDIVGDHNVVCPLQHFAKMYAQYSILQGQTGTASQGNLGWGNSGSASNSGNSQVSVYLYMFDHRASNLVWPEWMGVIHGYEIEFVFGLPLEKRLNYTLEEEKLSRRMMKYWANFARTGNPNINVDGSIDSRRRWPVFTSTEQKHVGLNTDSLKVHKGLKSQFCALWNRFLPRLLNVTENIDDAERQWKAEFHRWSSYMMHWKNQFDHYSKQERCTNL

Row | SMILES | Exp. pIC50 (AChE) | also measured
1 | CCC(=O)N(CCC1CCN(Cc2ccccc2)CC1)c1ccccc1 [CHEMBL141853] | 6.081 | 
2 | O=C(CCC1CCN(Cc2ccccc2Cl)CC1)c1ccc2c(c1)CCN2 [CHEMBL306175] | 7.119 | 
3 | CCN1CCCCc2ccc(C(=O)CCC3CCN(Cc4ccccc4)CC3)cc21 [CHEMBL310467] | 6.425 | 
4 | O=C(CCC1CCN(Cc2cccc([N+](=O)[O-])c2)CC1)c1ccc2c(c1)NCCCC2 [CHEMBL307832] | 6.409 | 
5 | O=C(c1ccc(F)cc1)N(CCC1CCN(Cc2ccccc2)CC1)c1ccccc1 [CHEMBL140737] | 7.745 | 
6 | O=c1c2ccccc2ccn1CCC1CCN(Cc2ccccc2)CC1 [CHEMBL141203] | 5.959 | 
7 | c1ccc(CN2CCC(Nc3ccc(-c4ccccc4)nn3)CC2)cc1 [CHEMBL1083058] | 4.187 | 
8 | O=C(CCC1CCN(Cc2ccccc2)CC1)c1ccc2c(c1)CCCN2 [CHEMBL1083661] | 7.268 | 
9 | COc1ccccc1OCCN(CC(=O)CC(O)c1cccc(-c2ccccc2)c1)Cc1ccccc1 (centres unmarked) [5c, 4-([1,1′-biphenyl]-3-yl)-1-(benzyl(2-(2-methoxyphenoxy)ethyl)amino)-4-hydroxybutan-2-one] |  | pIC50 [1]: 4.23; pIC50 ([2]; modified Ellman's method, horse BuChE, read-out: bAchE IC50): < 3.30; effect against BchE ([2]; result in words): without inhibiting; also recorded: did not showed the effect
10 | O=C(CCC1CCN(Cc2cccc(F)c2)CC1)c1ccc2c(c1)NCCCC2 [CHEMBL308093] | 6.839 | 
11 | COc1ccc(C(=O)N(CCC2CCN(Cc3ccccc3)CC2)c2ccccc2)cc1 [CHEMBL141873] | 6.229 | 
12 | O=C(c1ccncc1)N(CCC1CCN(Cc2ccccc2)CC1)c1ccccc1 [CHEMBL340621] | 7.194 | 
13 | Cc1cc(-c2ccccc2)n[nH]c1=NCCC1CCN(Cc2ccccc2)CC1 [CHEMBL94054] | 6.495 | 
14 | O=C1c2cccc([N+](=O)[O-])c2C(=O)N1CCC1CCN(Cc2ccccc2)CC1 [CHEMBL141001] | 8.046 | 
15 | COc1ccc(N(CCC2CCN(Cc3ccccc3)CC2)C(C)=O)cc1 [CHEMBL141801] | 6.155 | 
16 | O=c1c2ccccc2ncn1CCC1CCN(Cc2ccccc2)CC1 [CHEMBL140328] | 5.921 | 
17 | CC(=O)N(CCC1CCN(Cc2ccccc2)CC1)c1cccc(F)c1 [CHEMBL141167] | 7.187 | 
18 | c1ccc(CN2CCC(CNc3ccc(-c4ccccc4)nn3)CC2)cc1 [CHEMBL1083367] | 4.252 | 
19 | O=C(c1ccc([N+](=O)[O-])cc1)N(CCC1CCN(Cc2ccccc2)CC1)c1ccccc1 [CHEMBL126354] | 8.268 | 
20 | Cc1nc2ccc(C(=O)CCC3CCN(Cc4ccccc4)CC3)cc2[nH]1 [CHEMBL1084790] | 7.921 | 
21 | O=C1c2cccnc2C(=O)N1CCC1CCN(Cc2ccccc2)CC1 [CHEMBL140106] | 7.886 | 
22 | O=C(CCC1CCN(Cc2ccccc2)CC1)c1ccc2c(c1)CCN2 [CHEMBL75110] | 7.699 | 

Row | SMILES | Exp. pIC50 (AChE) | also measured
23 | O=C1Cc2ccccc2C(=O)N1CCC1CCN(Cc2ccccc2)CC1 [CHEMBL141042] | 7.638 | 
24 | O=C(c1ccccc1)c1ccc2c(c1)C(=O)N(CCC1CCN(Cc3ccccc3)CC1)C2=O [CHEMBL140999] | 8.62 | 
25 | O=C(CCC1CCN(Cc2ccccc2)CC1)c1ccc2c(c1)CCN2c1ccccc1 [CHEMBL1085858] | 7.167 | 
26 | Cc1nc2ccc(C(=O)CCC3CCN(Cc4ccccc4)CC3)cc2s1 [CHEMBL1084275] | 8.167 | 
27 | CCCN1CCCCc2ccc(C(=O)CCC3CCN(Cc4ccccc4)CC3)cc21 [CHEMBL307513] | 5.876 | 
28 | O=C(CCC1CCN(Cc2ccccc2)CC1)c1ccc2c(c1)OCO2 [CHEMBL1082434] | 7.523 | 
29 | CN1CCCc2cc(C(=O)CCC3CCN(Cc4ccccc4)CC3)ccc21 [CHEMBL1083660] | 7.62 | 
30 | CN1CCCc2ccc(C(=O)CCC3CCN(Cc4ccccc4)CC3)cc21 [CHEMBL76470] | 7.444 | 
31 | O=C1Cc2cc3c(CCC4CCN(Cc5ccccc5)CC4)noc3cc2N1 [CHEMBL359570] | 9.481 | 
32 | N#Cc1ccc2c(CCC3CCN(Cc4ccccc4)CC3)noc2c1 [CHEMBL92775] | 6.996 | 
33 | CN(CCNc1ccc(-c2ccccc2)nn1)Cc1ccccc1 [CHEMBL1086185] | 3.77 | 
34 | O=c1[nH]c2cc(Cl)ccc2c(=O)n1CCC1CCN(Cc2ccccc2)CC1 [CHEMBL138552] | 8.347 | 
35 | O=C(CCC1CCN(Cc2ccccc2)CC1)c1ccc2c(c1)NCCC2 [CHEMBL73593] | 6.785 | 
36 | COc1ccccc1CN1CCC(CCC(=O)c2ccc3c(c2)CCN3)CC1 [CHEMBL306776] | 6.09 | 
37 | CCn1c(C)nc2cc(C(=O)CCC3CCN(Cc4ccccc4)CC3)ccc21 [CHEMBL1082435] | 8.367 | 
38 | CN(CCCCNc1ccc(-c2ccccc2)nn1)Cc1ccccc1 [CHEMBL1084257] | 4.959 | 
39 | COc1ccc2c(c1)C(=O)N(CCC1CCN(Cc3ccccc3)CC1)C2=O [CHEMBL140770] | 8.097 | 
40 | Brc1ccc2c(CCC3CCN(Cc4ccccc4)CC3)noc2c1 [CHEMBL330004] | 7.301 | 
41 | O=C1c2ccccc2CCN1CCC1CCN(Cc2ccccc2)CC1 [CHEMBL142014] | 6 | 
42 | O=C(Nc1ccccc1)c1ccc2c(c1)C(=O)N(CCC1CCN(Cc3ccccc3)CC1)C2=O [CHEMBL1084256] | 8.658 | 
43 | O=C(CCC1CCN(Cc2cccc(F)c2)CC1)c1ccc2c(c1)CCN2 [CHEMBL308807] | 7.796 | 
44 | O=C1CCc2cc3c(CCC4CCN(Cc5ccccc5)CC4)noc3cc2N1 [CHEMBL329231] | 9.244 | 

Row | SMILES | Exp. pIC50 (AChE) | also measured
45 | CCN1CCc2cc(C(=O)CCC3CCN(Cc4ccccc4)CC3)ccc21 [CHEMBL308793] | 7.959 | 
46 | CN1CCc2cc(C(=O)CCC3CCN(Cc4ccccc4)CC3)ccc21 [CHEMBL311017] | 8 | 
47 | O=C(Nc1cccc2c1C(=O)N(CCC1CCN(Cc3ccccc3)CC1)C2=O)c1ccccc1 [CHEMBL141622] | 6.469 | 
48 | O=C(CCC1CCN(Cc2cccc(Cl)c2)CC1)c1ccc2c(c1)NCCCC2 [CHEMBL420378] | 6.478 | 
49 | Cc1cccc(CN2CCC(CCC(=O)c3ccc4c(c3)CCN4)CC2)c1 [CHEMBL306179] | 7.301 | 
50 | COc1ccccc1CN1CCC(CCC(=O)c2ccc3c(c2)NCCCC3)CC1 [CHEMBL309173] | 5.576 | 
51 | COc1cccc(N(CCC2CCN(Cc3ccccc3)CC2)C(C)=O)c1 [CHEMBL127527] | 7.337 | 
52 | O=C1c2ccccc2CN1CCC1CCN(Cc2ccccc2)CC1 [CHEMBL333909] | 7.009 | 
53 | O=C(CCC1CCN(Cc2ccccc2)CC1)c1ccc2c(c1)CCCN2c1ccccc1 [CHEMBL1083662] | 7.268 | 
54 | O=C(CCC1CCN(Cc2ccccc2)CC1)c1ccc2[nH]c(-c3ccccc3)nc2c1 [CHEMBL1082436] | 7.481 | 
55 | Nc1cccc2c1C(=O)N(CCC1CCN(Cc3ccccc3)CC1)C2=O [CHEMBL138442] | 7.959 | 
56 | O=C1c2ccc([N+](=O)[O-])cc2C(=O)N1CCC1CCN(Cc2ccccc2)CC1 [CHEMBL105874] | 7.903 | 
57 | CC(=O)Nc1ccc2c(c1)C(=O)N(CCC1CCN(Cc3ccccc3)CC1)C2=O [CHEMBL433678] | 8.553 | 
58 | O=C(Nc1ccc2c(c1)C(=O)N(CCC1CCN(Cc3ccccc3)CC1)C2=O)c1ccccc1 [CHEMBL138107] | 8.921 | 
59 | O=C1Cc2ccccc2CN1CCC1CCN(Cc2ccccc2)CC1 [CHEMBL140990] | 7.77 | 
60 | O=C1c2ccccc2C(=O)N1CCC1CCN(Cc2ccccc2)CC1 [CHEMB L106891] | 7.097 | 
61 | CN(CCCCCNc1ccc(-c2ccccc2)nn1)Cc1ccccc1 [CHEMBL1083057] | 6.131 | 
62 | Cc1ccc2onc(CCC3CCN(Cc4ccccc4)CC3)c2c1 [CHEMBL433379] | 8.108 | 
63 | O=C1c2ccccc2NCN1CCC1CCN(Cc2ccccc2)CC1 [CHEMBL141810] | 6.097 | 
64 | O=C1Cc2c(ccc3c(CCC4CCN(Cc5ccccc5)CC4)noc23)N1 [CHEMBL95020] | 8.444 | 
65 | O=C1Nc2ccccc2CN1CCC1CCN(Cc2ccccc2)CC1 [CHEMBL141276] | 7.886 | 
66 | O=C1Cc2cc3onc(CCC4CCN(Cc5ccccc5)CC4)c3cc2N1 [CHEMBL328468] | 9.022 | 

Reference: article PMC6175823, “Identification of novel acetylcholinesterase inhibitors designed by pharmacophore-based virtual screening, molecular docking and bioassay” (Scientific Reports, 2018)
